Columns and labels:
Assay in all cases: relative viability (nuclei count vs DMSO), 5 days (fraction); higher = more cells survive
[1] = compound: CC1=C(C(=NN1)C)CC2=C(C3=C(S2)N(C(=O)N(C3=O)C)CC(C)C)C(=O)N4C[C@@H](CO4)O + O=C(CCCCCCC(=O)Nc1ccccc1)NO [Vorinostat] (partner 1 µM)
Procedure, shortened: (§1)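 Relative viability equals treated-well nuclei counts divided by vehicle-well nuclei counts. Counts came from 4× images of lung cancer cell lines grown in 1536-well plates for 5 days after pin-tool dosing on the day after seeding. Dosing used one drug alone or a fixed anchor-drug dose plus five library-drug doses (not always all listed) in √10 steps, and values are medians of duplicate plates.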

IDH-C35 + Decitabine = compound: Cc1ccccc1C(C(=O)NC1CCCCC1)N(C(=O)Cn1ccnc1C)c1cccc(F)c1 [IDH-C35] + Nc1ncn([C@H]2C[C@H](O)[C@@H](CO)O2)c(=O)n1 [Decitabine] (partner 2 µM)
Procedure, shortened: as §1

IDH-C35 + Vorinostat = compound: Cc1ccccc1C(C(=O)NC1CCCCC1)N(C(=O)Cn1ccnc1C)c1cccc(F)c1 [IDH-C35] + O=C(CCCCCCC(=O)Nc1ccccc1)NO [Vorinostat] (partner 1 µM)
Procedure, shortened: as §1

IDH-C35 + Dasatinib = compound: Cc1ccccc1C(C(=O)NC1CCCCC1)N(C(=O)Cn1ccnc1C)c1cccc(F)c1 [IDH-C35] + Cc1nc(Nc2ncc(C(=O)Nc3c(C)cccc3Cl)s2)cc(N2CCN(CCO)CC2)n1 [Dasatinib] (partner 0.075 µM)
Procedure, shortened: as §1

Cell Line | relative viability ([1]; first compound 0.0025 µM) | relative viability ([1]; first compound 0.007906 µM) | relative viability ([1]; first compound 0.025 µM) | relative viability ([1]; first compound 0.07906 µM) | relative viability ([1]; first compound 0.25 µM) | relative viability (IDH-C35 + Decitabine; first compound 0.08 µM) | relative viability (IDH-C35 + Decitabine; first compound 0.253 µM) | relative viability (IDH-C35 + Decitabine; first compound 0.8 µM) | relative viability (IDH-C35 + Decitabine; first compound 2.53 µM) | relative viability (IDH-C35 + Decitabine; first compound 8 µM) | relative viability (IDH-C35 + Vorinostat; first compound 0.08 µM) | relative viability (IDH-C35 + Vorinostat; first compound 0.253 µM) | relative viability (IDH-C35 + Vorinostat; first compound 0.8 µM) | relative viability (IDH-C35 + Vorinostat; first compound 2.53 µM) | relative viability (IDH-C35 + Vorinostat; first compound 8 µM) | relative viability (IDH-C35 + Dasatinib; first compound 0.08 µM) | relative viability (IDH-C35 + Dasatinib; first compound 0.253 µM) | relative viability (IDH-C35 + Dasatinib; first compound 0.8 µM) | relative viability (IDH-C35 + Dasatinib; first compound 2.53 µM) | relative viability (IDH-C35 + Dasatinib; first compound 8 µM)
BEN | 0.553 | 0.493 | 0.593 | 0.527 | 0.536 | 0.683 | 0.707 | 0.681 | 0.707 | 0.75 | 0.576 | 0.608 | 0.618 | 0.568 | 0.593 | 0.308 | 0.373 | 0.289 | 0.333 | 0.293
LCLC-103H | 0.871 | 0.896 | 0.792 | 0.772 | 0.689 | 0.81 | 0.676 | 0.726 | 0.744 | 0.834 | 0.782 | 0.755 | 0.87 | 0.591 | 0.625 | 0.485 | 0.441 | 0.45 | 0.423 | 0.514
EKVX | 0.863 | 0.756 | 0.806 | 0.604 | 0.416 | 0.343 | 0.399 | 0.4 | 0.321 | 0.339 | 0.876 | 0.678 | 0.769 | 0.738 | 0.698 | 0.568 | 0.53 | 0.57 | 0.494 | 0.61
LXF-289 | 0.881 | 0.748 | 0.829 | 0.671 | 0.762 | 0.405 | 0.401 | 0.38 | 0.371 | 0.415 | 0.768 | 0.787 | 0.86 | 0.62 | 0.799 | 0.276 | 0.25 | 0.252 | 0.221 | 0.214
ABC-1 | 1.08 | 1.27 | – | 0.904 | 0.864 | 0.838 | 1.12 | 0.975 | 0.98 | 0.95 | 1.12 | 1.07 | 0.941 | 1.23 | 1.3 | 0.583 | 0.58 | 0.485 | 0.476 | 0.631
NCI-H650 | 0.549 | 0.516 | 0.393 | 0.35 | 0.545 | 0.304 | 0.339 | 0.371 | – | 0.313 | 0.413 | 0.434 | 0.515 | – | 0.505 | 0.475 | 0.468 | 0.462 | – | 0.433
NCI-H1650 | 0.529 | 0.583 | 0.49 | 0.713 | 0.568 | 0.417 | 0.358 | 0.408 | 0.465 | 0.453 | 0.685 | 0.491 | 0.569 | 0.588 | 0.84 | 0.328 | 0.35 | 0.328 | 0.269 | 0.304
NCI-H2085 | 0.829 | 0.791 | 0.78 | 0.797 | 0.514 | 0.543 | 0.549 | 0.554 | 0.569 | 0.465 | 0.88 | 0.784 | 0.81 | 0.86 | 0.719 | 0.275 | 0.261 | 0.223 | 0.277 | 0.266
NCI-H1793 | 0.72 | 0.959 | 0.757 | 0.733 | 0.747 | 0.519 | 0.454 | 0.535 | 0.586 | 0.476 | 0.784 | 0.82 | 0.773 | 0.913 | 0.881 | 0.409 | 0.423 | 0.364 | – | 0.414
LC-2-ad | 0.696 | 0.658 | 0.718 | 0.705 | 0.729 | 0.73 | 0.839 | 0.847 | 0.764 | 0.782 | 0.694 | 0.701 | 0.67 | 0.632 | 0.677 | 0.596 | 0.65 | 0.568 | – | 0.593
COR-L 105 | 0.89 | 0.918 | 0.374 | 0.86 | 0.744 | 0.559 | 0.678 | 0.724 | 0.677 | 0.619 | 0.932 | 0.959 | 0.722 | 0.803 | 0.688 | 0.394 | 0.394 | 0.403 | 0.323 | 0.349
NCI-H1355 | 0.72 | 0.632 | 0.66 | 0.55 | 0.662 | 0.347 | 0.379 | 0.353 | 0.419 | 0.344 | 0.665 | 0.691 | 0.601 | 0.646 | 0.691 | 0.76 | 0.727 | 0.667 | 0.651 | 0.742
H3255 | 0.969 | 0.716 | 0.821 | 0.844 | 0.854 | 0.61 | 0.607 | 0.606 | 0.63 | 0.596 | 0.8 | 0.925 | 0.875 | 0.73 | 0.868 | 0.406 | 0.415 | 0.306 | 0.453 | 0.331
NCI-H1993 | 1.03 | 0.664 | 0.685 | 0.623 | 0.711 | 0.586 | 0.567 | 0.7 | 0.693 | 0.566 | 0.726 | 0.717 | 0.77 | 1.08 | 0.897 | 0.654 | 0.53 | 0.577 | 0.559 | 0.621
NCI-H1734 | 0.88 | 0.868 | 0.768 | 0.745 | 0.76 | 0.537 | 0.524 | 0.528 | 0.483 | 0.499 | 0.712 | 0.846 | 0.83 | 0.826 | 0.815 | 0.469 | 0.524 | 0.511 | 0.458 | 0.419
HOP-62 | 0.575 | 0.895 | 0.496 | 0.631 | 0.65 | 0.175 | 0.237 | 0.229 | 0.206 | 0.206 | 0.532 | 0.708 | 0.669 | 0.434 | 0.628 | 0.712 | 0.624 | 0.6 | 0.638 | 0.622

Source: the supplement of paper PMC10307832
